The source made the active and inactive calls. No cut-off for these calls is given here.
Key:
A549 [1] = experiment: Cytotoxicity against human A549 cells after 48 hrs by WST8 assay; assay type: functional; conditions: A549, 48 h
[2] = biological target: DNA topoisomerase 2-alpha (Homo sapiens, UniProt P11388); experiment: Inhibition of human DNA topoisomerase 2-mediated relaxation of supercoiled DNA by gel electrophoresis
[3] = biological target: T1, DNA topoisomerase 1 (Homo sapiens) (UniProt P11387); experiment: Inhibition of human DNA topoisomerase 1-mediated relaxation of supercoiled DNA at 63 to 125 uM
T1 sequence (whole entry): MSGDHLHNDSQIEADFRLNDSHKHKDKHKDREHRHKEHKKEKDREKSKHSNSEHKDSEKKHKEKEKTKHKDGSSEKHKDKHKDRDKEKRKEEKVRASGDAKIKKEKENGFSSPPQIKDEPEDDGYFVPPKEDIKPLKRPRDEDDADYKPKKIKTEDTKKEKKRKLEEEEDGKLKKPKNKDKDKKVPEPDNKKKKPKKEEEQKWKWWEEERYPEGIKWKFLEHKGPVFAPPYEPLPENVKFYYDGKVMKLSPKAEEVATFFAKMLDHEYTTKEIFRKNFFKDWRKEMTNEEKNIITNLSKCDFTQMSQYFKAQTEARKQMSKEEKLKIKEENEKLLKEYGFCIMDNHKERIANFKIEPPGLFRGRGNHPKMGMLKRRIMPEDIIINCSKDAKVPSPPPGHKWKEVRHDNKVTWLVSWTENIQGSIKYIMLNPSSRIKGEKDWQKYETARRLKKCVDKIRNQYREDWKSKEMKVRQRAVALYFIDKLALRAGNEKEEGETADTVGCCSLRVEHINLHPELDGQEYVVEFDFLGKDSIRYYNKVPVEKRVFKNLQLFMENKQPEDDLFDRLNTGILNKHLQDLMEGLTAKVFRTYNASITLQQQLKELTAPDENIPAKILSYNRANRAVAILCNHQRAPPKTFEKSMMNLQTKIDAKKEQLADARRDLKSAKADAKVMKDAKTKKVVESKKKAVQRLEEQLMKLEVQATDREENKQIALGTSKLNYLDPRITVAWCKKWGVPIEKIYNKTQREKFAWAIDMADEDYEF

DNA topoisomerase 1 [4] = biological target: T2, DNA topoisomerase 1 (Homo sapiens, UniProt P11387); experiment: Inhibition of human DNA topoisomerase 1-mediated relaxation of supercoiled DNA by gel electrophoresis
T2 sequence (P11387 whole entry): T1 sequence (whole entry)

PANC-1 [5] = experiment: Cytotoxicity against human PANC1 cells after 48 hrs by WST8 assay; assay type: functional; conditions: PANC-1, 48 h
[6] = Cytotoxicity against human MRC5 cells after 48 hrs by WST8 assay; assay type: cell-based
PC-3 [7] = experiment: Cytotoxicity against human PC3 cells after 48 hrs by WST8 assay; assay type: functional; conditions: PC-3, 48 h
HL-60 [8] = experiment: Cytotoxicity against human HL60 cells after 48 hrs by WST8 assay; assay type: functional; conditions: HL-60, 48 h
DNA topoisomerase 1 [9] = biological target: T2, DNA topoisomerase 1; experiment: Inhibition of human DNA topoisomerase 1 at free enzyme state
[10] = biological target: T1, DNA topoisomerase 1 (Homo sapiens); experiment: Inhibition of human DNA topoisomerase 1 assessed as prevention of DNA-enzyme complex formation
[11] = biological target: T1, DNA topoisomerase 1 (Homo sapiens); experiment: Inhibition of human DNA topoisomerase 1 assessed as stabilize DNA-enzyme covalent complex
[12] = biological target: T1, DNA topoisomerase 1 (Homo sapiens); experiment: Inhibition of human DNA topoisomerase 1-mediated relaxation of supercoiled DNA at 450 uM
PC-3 [13] = experiment: Cytotoxicity against human PC3 cells at 25 uM after 48 hrs by WST8 assay; assay type: functional, cell-based
PANC-1 [14] = experiment: Cytotoxicity against human PANC1 cells at 25 uM after 48 hrs by WST8 assay; assay type: functional, cell-based
MRC5 = experiment: Cytotoxicity against human MRC5 cells at 25 uM after 48 hrs by WST8 assay; assay type: cell-based; conditions: mrc5, 48 h
[15] = biological target: T1, DNA topoisomerase 1 (Homo sapiens); experiment: Inhibition of human DNA topoisomerase 1-mediated relaxation of supercoiled DNA at 312 uM
HL-60 [16] = experiment: Cytotoxicity against human HL60 cells at 25 uM after 48 hrs by WST8 assay; assay type: functional, cell-based
A549 [17] = experiment: Cytotoxicity against human A549 cells at 25 uM after 48 hrs by WST8 assay; assay type: functional, cell-based
[18] = biological target: T1, DNA topoisomerase 1 (Homo sapiens); experiment: Inhibition of human DNA topoisomerase 1 assessed as intercalate into DNA at 312 uM

DNA topoisomerase 2-alpha, sequence (P11388 whole entry): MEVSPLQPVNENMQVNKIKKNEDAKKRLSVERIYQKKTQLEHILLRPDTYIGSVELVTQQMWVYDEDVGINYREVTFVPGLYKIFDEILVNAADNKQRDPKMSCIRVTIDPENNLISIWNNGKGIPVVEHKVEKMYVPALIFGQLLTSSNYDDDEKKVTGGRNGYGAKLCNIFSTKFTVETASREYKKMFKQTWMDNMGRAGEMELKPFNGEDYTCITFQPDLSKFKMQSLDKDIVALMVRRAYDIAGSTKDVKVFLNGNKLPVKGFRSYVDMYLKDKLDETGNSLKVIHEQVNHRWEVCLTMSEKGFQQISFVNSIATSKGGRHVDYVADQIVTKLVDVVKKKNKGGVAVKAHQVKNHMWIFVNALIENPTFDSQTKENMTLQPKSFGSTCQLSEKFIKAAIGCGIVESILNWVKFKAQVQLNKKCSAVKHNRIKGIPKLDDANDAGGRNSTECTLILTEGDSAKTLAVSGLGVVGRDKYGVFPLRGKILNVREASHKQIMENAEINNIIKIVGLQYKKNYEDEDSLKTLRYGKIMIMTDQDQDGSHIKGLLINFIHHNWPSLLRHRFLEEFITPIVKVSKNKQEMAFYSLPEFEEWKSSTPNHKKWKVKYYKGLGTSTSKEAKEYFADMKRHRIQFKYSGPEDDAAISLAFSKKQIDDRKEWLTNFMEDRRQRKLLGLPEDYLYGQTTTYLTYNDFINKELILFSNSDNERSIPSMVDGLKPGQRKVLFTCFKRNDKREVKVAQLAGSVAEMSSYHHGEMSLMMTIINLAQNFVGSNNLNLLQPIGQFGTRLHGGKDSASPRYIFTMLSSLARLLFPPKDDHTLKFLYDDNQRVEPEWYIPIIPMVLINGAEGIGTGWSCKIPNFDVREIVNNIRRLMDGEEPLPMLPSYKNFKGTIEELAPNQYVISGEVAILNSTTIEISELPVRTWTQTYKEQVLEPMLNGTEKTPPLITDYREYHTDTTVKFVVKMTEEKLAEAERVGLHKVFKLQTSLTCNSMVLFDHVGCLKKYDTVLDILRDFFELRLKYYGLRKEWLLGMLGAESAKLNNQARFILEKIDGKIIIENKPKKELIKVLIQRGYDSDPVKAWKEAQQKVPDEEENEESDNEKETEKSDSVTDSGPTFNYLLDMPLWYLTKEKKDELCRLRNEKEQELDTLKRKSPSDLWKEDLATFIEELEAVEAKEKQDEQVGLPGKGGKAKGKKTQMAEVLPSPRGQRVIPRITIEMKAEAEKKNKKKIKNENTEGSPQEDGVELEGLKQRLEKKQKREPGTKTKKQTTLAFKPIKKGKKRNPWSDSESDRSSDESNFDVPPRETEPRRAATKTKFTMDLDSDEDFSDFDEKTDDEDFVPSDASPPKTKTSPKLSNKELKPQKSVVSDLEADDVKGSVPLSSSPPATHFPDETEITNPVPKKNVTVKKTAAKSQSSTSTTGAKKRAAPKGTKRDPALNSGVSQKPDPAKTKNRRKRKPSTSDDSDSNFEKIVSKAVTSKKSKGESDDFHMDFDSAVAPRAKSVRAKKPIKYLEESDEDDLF

| IC50 [2] [µM] | inhibition [3] | IC50 (DNA topoisomerase 1 [4]) [µM] | inhibition [12] | inhibition [15] | Activity [18] | SMILES | GI50 (A549 [1]) [µM] | GI50 (PANC-1 [5]) [µM] | GI50 at 48 h [6] [µM] | GI50 (PC-3 [7]) [µM] | GI50 (HL-60 [8]) [µM] | IC50 (DNA topoisomerase 1 [9]) [µM] | inhibition [10] | inhibition [11] | growth inhibition (GI) (PC-3 [13]) | growth inhibition (GI) (PANC-1 [14]) | growth inhibition (GI) (MRC5) | growth inhibition (GI) (HL-60 [16]) | growth inhibition (GI) (A549 [17]) |
| --- | --- | --- | --- | --- | --- | --- | --- | --- | --- | --- | --- | --- | --- | --- | --- | --- | --- | --- | --- |
| > 250 | Active | 53 | – | – | – | C/C=C(/C)C(=O)O[C@H]1[C@H](OC(=O)/C(C)=C\C)[C@]2(CO)[C@H](O)C[C@]3(C)C(=CC[C@@H]4[C@@]5(C)CC[C@H](O[C@@H]6O[C@H](C(=O)O)[C@@H](O)[C@H](O[C@@H]7O[C@@H](CO)[C@H](O)[C@H]7O)[C@H]6O[C@@H]6O[C@H](CO)[C@@H](O)[C@H](O)[C@H]6O)[C@](C)(CO)[C@@H]5CC[C@]43C)[C@@H]2CC1(C)C | 6.36 | 11.1 | 5.5 | 1.6 | 1.94 | 23.8 | Active | inactive | – | – | – | – | – |
| > 250 | – | > 250 | inactive | – | – | C/C=C(/C)C(=O)O[C@H]1[C@H](OC(=O)/C(C)=C\C)[C@]2(CO)[C@H](O)C[C@]3(C)C(=CC[C@@H]4[C@@]5(C)CC[C@H](O)C(C)(C)[C@@H]5CC[C@]43C)[C@@H]2CC1(C)C | 5.48 | 11.2 | 7.18 | 6.84 | 5.46 | – | – | – | – | – | – | – | – |
| > 250 | – | 109 | Active | inactive | – | C/C=C(/C)C(=O)O[C@H]1[C@H](O)[C@]2(CO)[C@H](O)[C@H](O)[C@]3(C)C(=CC[C@@H]4[C@@]5(C)CC[C@H](O[C@@H]6O[C@H](C(=O)O)[C@@H](O)[C@H](O[C@@H]7O[C@@H](CO)[C@H](O)[C@H]7O)[C@H]6O[C@@H]6O[C@H](CO)[C@H](O)[C@H](O)[C@H]6O)C(C)(C)[C@@H]5CC[C@]43C)[C@@H]2CC1(C)C [AESCULIOSIDE IIA] | – | – | – | – | – | – | – | – | inactive | inactive | Not Active | inactive | inactive |
| – | – | – | – | inactive | Active | C/C=C(/C)C(=O)O[C@H]1[C@H](O)[C@]2(CO)[C@H](O)C[C@]3(C)C(=CC[C@@H]4[C@@]5(C)CC[C@H](O[C@@H]6O[C@H](C(=O)O)[C@@H](O)[C@H](O[C@@H]7O[C@@H](CO)[C@H](O)[C@H]7O)[C@H]6O[C@@H]6O[C@H](CO)[C@@H](O)[C@H](O)[C@H]6O)[C@](C)(CO)[C@@H]5CC[C@]43C)[C@@H]2CC1(C)C [AESCULIOSIDE IIB] | – | – | – | – | – | – | – | – | inactive | inactive | Not Active | inactive | inactive |
| > 250 | Active | 48.6 | – | – | Active | C/C=C(\C)C(=O)O[C@H]1[C@H](OC(=O)/C(C)=C/C)[C@]2(CO)[C@H](O)[C@H](O)[C@]3(C)C(=CC[C@@H]4[C@@]5(C)CC[C@H](O[C@@H]6O[C@H](C(=O)O)[C@@H](O)[C@H](O[C@@H]7O[C@@H](CO)[C@H](O)[C@H]7O)[C@H]6O[C@@H]6O[C@H](CO)[C@@H](O)[C@H](O)[C@H]6O)[C@](C)(CO)[C@@H]5CC[C@]43C)[C@@H]2CC1(C)C [AESCULIOSIDE IIID] | 23.7 | 21.7 | 9.01 | 14.6 | 15.2 | – | – | – | – | – | – | – | – |

| SMILES | IC50 [2] [µM] | inhibition [3] | IC50 (DNA topoisomerase 1 [4]) [µM] | inhibition [12] | inhibition [15] | Activity [18] | GI50 (A549 [1]) [µM] | GI50 (PANC-1 [5]) [µM] | GI50 at 48 h [6] [µM] | GI50 (PC-3 [7]) [µM] | GI50 (HL-60 [8]) [µM] | IC50 (DNA topoisomerase 1 [9]) [µM] | inhibition [10] | inhibition [11] | growth inhibition (GI) (PC-3 [13]) | growth inhibition (GI) (PANC-1 [14]) | growth inhibition (GI) (MRC5) | growth inhibition (GI) (HL-60 [16]) | growth inhibition (GI) (A549 [17]) |
| --- | --- | --- | --- | --- | --- | --- | --- | --- | --- | --- | --- | --- | --- | --- | --- | --- | --- | --- | --- |
| C/C=C(/C)C(=O)O[C@H]1[C@H](OC(=O)/C(C)=C\C)[C@]2(CO)[C@H](O)[C@H](O)[C@]3(C)C(=CC[C@@H]4[C@@]5(C)CC[C@H](O[C@@H]6O[C@H](C(=O)O)[C@@H](O)[C@H](O[C@@H]7O[C@@H](CO)[C@H](O)[C@H]7O)[C@H]6O[C@@H]6O[C@H](CO)[C@H](O)[C@H](O)[C@H]6O)C(C)(C)[C@@H]5CC[C@]43C)[C@@H]2CC1(C)C | > 250 | Active | 32.7 | – | – | – | 4.58 | 21.5 | 5.26 | 14.3 | 16.9 | 23.8 | Active | inactive | – | – | – | – | – |
